The text below walks through data of ChEMBL document CHEMBL1128320 (J Med Chem, 1995).

The target in data set [1] is T1, Steroid 17-alpha-hydroxylase/17,20 lyase (Homo sapiens, UniProt P05093).
T1 sequence (P05093 whole entry): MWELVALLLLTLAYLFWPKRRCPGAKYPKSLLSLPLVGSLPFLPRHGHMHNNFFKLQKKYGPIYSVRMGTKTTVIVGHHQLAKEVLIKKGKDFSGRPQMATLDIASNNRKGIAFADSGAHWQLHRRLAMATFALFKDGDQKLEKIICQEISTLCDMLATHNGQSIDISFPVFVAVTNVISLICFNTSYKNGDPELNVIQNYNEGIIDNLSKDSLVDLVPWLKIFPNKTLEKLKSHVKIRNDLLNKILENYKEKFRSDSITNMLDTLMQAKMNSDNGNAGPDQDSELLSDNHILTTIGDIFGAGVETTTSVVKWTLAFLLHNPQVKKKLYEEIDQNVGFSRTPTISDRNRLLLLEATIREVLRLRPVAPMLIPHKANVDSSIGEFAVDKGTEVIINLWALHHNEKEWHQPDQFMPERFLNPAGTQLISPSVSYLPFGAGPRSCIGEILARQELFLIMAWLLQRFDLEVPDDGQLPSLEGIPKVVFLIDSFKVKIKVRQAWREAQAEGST

For data set [2], the target named is T2, Steroid 17-alpha-hydroxylase/17,20 lyase (Rattus norvegicus, UniProt P11715).
T2 sequence (P11715 whole entry): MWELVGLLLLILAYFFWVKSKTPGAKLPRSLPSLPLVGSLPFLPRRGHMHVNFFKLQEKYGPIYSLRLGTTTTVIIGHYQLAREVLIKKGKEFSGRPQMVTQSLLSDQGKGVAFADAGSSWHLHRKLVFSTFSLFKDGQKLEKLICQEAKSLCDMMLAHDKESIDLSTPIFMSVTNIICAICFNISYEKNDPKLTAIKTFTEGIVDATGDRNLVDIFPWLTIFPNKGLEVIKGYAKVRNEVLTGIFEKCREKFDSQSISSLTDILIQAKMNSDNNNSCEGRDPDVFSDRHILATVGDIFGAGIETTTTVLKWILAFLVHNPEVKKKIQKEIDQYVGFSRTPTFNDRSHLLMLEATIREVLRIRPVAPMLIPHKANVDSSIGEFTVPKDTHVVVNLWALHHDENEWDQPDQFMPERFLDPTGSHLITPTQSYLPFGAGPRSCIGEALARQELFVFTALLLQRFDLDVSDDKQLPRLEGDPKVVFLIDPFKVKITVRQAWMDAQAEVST

Data set [3] addresses T1, Steroid 17-alpha-hydroxylase/17,20 lyase. This is another data set of the same source.
Data set [4] has as its target T2, Steroid 17-alpha-hydroxylase/17,20 lyase. This is another data set of the same source.
The next data set concerns esterase. As to the kind of experiment: in vitro. To be noted: rat, in vivo.

Broadly, the IC50 is the midpoint of a concentration-inhibition curve. In general, half-life refers to the time needed for the level to fall by half in the phase considered. Low values mean rapid decline, high ones slow decline.

Description for esterase: Hydrolysis rate by rat liver microsomal esterase

In the case of `C[C@@H]1C(OC(=O)Cc2cccnc2)CC2CC1C2(C)C` (stereo not given in full), the concentration for half-maximal inhibition (IC50) in data set [1] was 88 nM; in data set [2] it was 520 nM; in data set [3] it was 260 nM; in data set [4] it was 460 nM. The compound further yielded a half-life with esterase of 16 min.
For the compound `CC(C(=O)OC1CC2CC([C@@H]1C)C2(C)C)c1cccnc1` (stereo not given in full), the half-inhibitory concentration (IC50) in data set [1] amounted to 14 nM; in data set [3] it was 82 nM. Further, the half-life with esterase stood at 50 min.
Regarding `C[C@@H]1C(OC(=O)Cc2ccncc2)CC2CC1C2(C)C` (stereo not given in full), the 50% inhibitory concentration (IC50) in data set [1] is 5 nM; in data set [2], 280 nM; in data set [3] it was 14 nM; in data set [4] it was 260 nM. The half-life in the data set on esterase was 17.5 min.
On to `CCC(CC)(C(=O)OC1CC2CC([C@@H]1C)C2(C)C)c1ccncc1` (stereo not given in full), for which the IC50 was 35 nM in data set [1] and 140 nM in data set [3].
Consider `CC(C(=O)OC1CC2CC([C@@H]1C)C2(C)C)c1ccncc1` (stereo not given in full), for which the concentration for half-maximal inhibition (IC50) worked out at 6 nM in data set [1] and 19 nM in data set [3]. In addition, the half-life in the data set with esterase is 100 min.
As for `CC(C)(C(=O)OC12CC3CC(CC(C3)C1)C2)c1cccnc1`, the 50% inhibitory concentration (IC50) was 13 nM in data set [1] and 90 nM in data set [3].
Regarding `C[C@@H]1CCC2C(C)(C)C3CC21CC[C@@]3(C)OC(=O)Cc1ccncc1` (stereo not given in full), the IC50 turned out to be 52 nM in data set [1] and 270 nM in data set [3].
For `CC(C(=O)OC12CC3CC(CC(C3)C1)C2)c1cccnc1` (stereo not given), in that order: 35 nM and 220 nM.
For `C[C@@H]1C(OC(=O)Cc2ccccn2)CC2CC1C2(C)C` (stereo not given in full), in that order: greater than 1000 nM and greater than 1000 nM.
For `O=C(Cc1cccnc1)OC12CC3CC(CC(C3)C1)C2`, in that order: 130 nM and 930 nM.
For `C[C@@H]1C(OC(=O)C(C)(C)c2ccncc2)CC2CC1C2(C)C` (stereo not given in full), the concentration for half-maximal inhibition (IC50) came out at 10 nM in data set [1] and 26 nM in data set [3].
On to `C[C@@H]1CCC2C(C)(C)C3CC21CC[C@@]3(C)OC(=O)Cc1cccnc1` (stereo not given in full), for which the IC50 in data set [1] came to 38 nM; in data set [3], 230 nM.
For `CC(C)(C(=O)OC1(C)C2CC3CC(C2)CC1C3)c1cccnc1` (stereo not given), in that order: 13 nM and 75 nM.
For `CC1(OC(=O)Cc2cccnc2)C2CC3CC(C2)CC1C3` (stereo not given), in that order: 320 nM and 1900 nM.
On to `CCC(C(=O)OC1CC2CC([C@@H]1C)C2(C)C)c1ccncc1` (stereo not given in full), for which the IC50 in data set [1] was 9 nM; in data set [3], 34 nM. The same compound returned a half-life in the data set with esterase of 88 min.
As for `C[C@@H]1C(OC(=O)C(C)(C)c2cccnc2)CC2CC1C2(C)C` (stereo not given in full), the IC50 amounted to 15 nM in data set [1], 52 nM in data set [2], 29 nM in data set [3] and 47 nM in data set [4].
Turning to `C[C@@H]1CCC2C(C)(C)C3CC21CC[C@@]3(C)OC(=O)C(C)(C)c1cccnc1` (stereo not given in full), the half-maximal inhibitory concentration (IC50) in data set [1] amounted to 670 nM; in data set [3] it was 4000 nM.
